Assay results: patent US6800481B1, “Stable macroscopic membranes formed by self-assembly of amphiphilic peptides and uses therefor” (priority 1992, dated 2004)
“Also recorded” adds a separate entry of the source. Where two headings read alike, the source gives them in different places. Residues, ends and D or L forms follow the SMILES beside them.

How the values were obtained:
[1] = format: physicochemical; conditions: for [θ2] λ2 195 nm / −[θ1] λ1 218 nm: 8 μM in water
Procedure: Circular dichroism (CD) spectra were taken on an Aviv Model 60DS spectropolarimeter using program 60HDS for data processing. Because EAK16 contains both positively and negatively charged residues, the peptide itself can serve as a buffer. CD samples were prepared and measured at 25° C., unless otherwise indicated. All reagents were ultrapure and solutions were filtered through a […] before use. Circular dichroism (CD) spectroscopy was used to monitor the stability of the β-sheet structure of EAK16 under various conditions. Dilute […] concentrations. […] A 3 mM stock EAK16 solution was mixed in water to a concentration of 20 μM, allowed to equilibrate, and the CD spectrum measured. The solution was then diluted five times by two-fold serial dilutions to final concentrations of […], 10, 5.0, 2.5, 1.25 and 0.625 μM, allowed to equilibrate and CD spectra taken. […] Temperature. The CD spectra of 8 μM EAK16 at 25, 37, 55, 70 and 90° C. in water were measured. […] EAK16 has a calculated pI Of 6.71. It was assumed that changes of pH would have a great effect on the β-sheet structure, especially when the charged groups are neutralized. […] The 3 mM stock solution of EAK16 was mixed with pH buffers at pH 1.5, 3, 7, and 11 to a final concentration of 10 μM and allowed to equilibrate for 4 hours before taking CD measurements. […] Chemical denaturants. […] The peptide (3 mM stock) was mixed with water or different concentrations of guanidine-HCl or urea and allowed to incubate overnight before taking CD measurements. SDS was added to a peptide solution to a final concentration of 0.1% and incubated for 30 minutes.

[2] = system: NGF differentiated PC12 cells, retonic acid-differentiated human neuroblastoma and mouse cerebellum granule cells; experiment: Neurite outgrowth on biopolymers, several neuronal cell types; format: cell-based
Source text: The invention further relates to the regeneration of nerves with filaments of the membranes of the present invention. Nerve regeneration can be promoted and directed by transplanting filaments of RAD16 along the correct path to their targets. This would be extremely useful for patients with severed peripheral nerves. Such a technology could be refined to help people with spinal cord injuries.

PC12 cells = experiment: In vitro neurite outgrowth on peptide membranes; format: cell-based, rat
Procedure: The suitability of these materials for supporting in vitro neurite outgrowth was tested by treating biomaterial-attached PC12 cells with nerve growth factor (NGF). This treatment induces PC12 cells to differentiate into sympathetic neurons which can send out long processes called neurites. There was a marked difference in the neurite promoting properties of the two materials tested (EAK16 and RAD16).
Nerve growth factor differentiated PC12 cells have been used extensively in studies of neurite outgrowth. PC12 cells upregulate the number of calcium-dependent and -independent cell adhesion receptors in response to nerve growth factor. Cell attachment and neurite outgrowth from nerve growth factor differentiated PC12 cells was examined on membranes of RAD16 and EAK16 in order to determine whether membranes containing RGD-like sequences would preferentially support these cell activities. Neurite outgrowth on peptide membranes is of interest for potential applications of nerve repair.
Untreated PC12 cells were introduced to peptide membranes of EAK16 and RAD16 suspended in 85% RMMP1, 10% heat inactivated horse serum, 5 fetal bovine serum. Half of the cells were treated with nerve growth factor (50 ng/ml, NGF) and were supplemented with NGF every 3-4 days for 14 days. […] The neurite outgrowth reached greater than 400 μm in length, approximately 15-20 times the cell body, following the contour of the matrices in a three dimensional network.

[3] = Testing of peptides for macroscopic membrane formation (phase-contrast microscope, Congo Red staining); format: physicochemical
Source text: The effect of length and sequence on membrane formation was examined using several peptides (Table 1 and Example 3). […] Very long peptides, e.g., of about 200 amino acids, may encounter problems due to insolubility and intramolecular interactions which destabilize membrane formation. […] The optimal lengths for membrane formation will probably vary with the amino acid composition.
The EAK12 and EAK16 tested for membrane formation were acetylated and aminylated at both N- and C-terminal ends. […] The peptides were initially dissolved in water (5 mg/ml) or in 23% acetonitrile (10 mg/ml). A volume of 5-10 microliters of the dissolved peptides were applied to the DMEM medium, PBS or water. The formation of the membrane was first observed under a phase-contrast microscope and then, by the naked eye after staining with Congo Red.

PC12NGF = experiment: Cell attachment to biopolymer sheets, normal or Ca++ and Mg++ free medium (Table 6); format: cell-based, rat; parameters: key: ++++: strong attachment; +++: moderate attachment; ++: weak attachment; +/−: little or no attachment
Procedure: (§1) Cells were pretreated in serum-free medium containing 30 μg/ml cyclohexamide for 2 hours before introduction to the peptide membranes. The cells used for the calcium and magnesium-free condition were pre-equilibrated in Ca^++ and Mg^++ free medium containing 5 mM EDTA for 15 minutes before introduction to the peptide membranes. Cells were allowed to attach to the peptide membranes for 30 minutes, 1 and 8 hours at 37° C. The attached cells were shaken for […] on a rotary rocker at 60 r.p.m., then scored under phase contrast microscopy.

PC12 = experiment: as above; format: cell-based, rat; parameters: key: ++++: strong attachment; +++: moderate attachment; ++: weak attachment; +/−: little or no attachment
Procedure: as §1

## CC(=O)N[C@@H](C)C(=O)N[C@@H](CCC(=O)O)C(=O)N[C@@H](C)C(=O)N[C@@H](CCC(=O)O)C(=O)N[C@@H](C)C(=O)N[C@@H](CCCCN)C(=O)N[C@@H](C)C(=O)N[C@@H](CCCCN)C(=O)N[C@@H](C)C(=O)N[C@@H](CCC(=O)O)C(=O)N[C@@H](C)C(=O)N[C@@H](CCC(=O)O)C(=O)N[C@@H](C)C(=O)N[C@@H](CCCCN)C(=O)N[C@@H](C)C(=O)N[C@@H](CCCCN)C(N)=O [EAK16] (Ac-AEAEAKAKAEAEAKAK-NH2)
[1]; 0.625 to 20 μM in water
  β-sheet structure on dilution of the peptide: not significantly affected by dilution of the peptide
[1]; 25, 37, 55, 70 and 90° C.
  CD spectra over temperature: unaffected over the range of 25-90 °C
[1]; 25 ° C.
  Ratio [θ2]/[θ1]: 3.9
  [θ2] λ2 195 nm: 62 X1,000
  −[θ1] λ1 218 nm: 16 X1,000
[1]; 37 ° C.
  Ratio [θ2]/[θ1]: 4.0
  [θ2] λ2 195 nm: 60 X1,000
  −[θ1] λ1 218 nm: 15 X1,000
[1]; 55 ° C.
  Ratio [θ2]/[θ1]: 3.9
  [θ2] λ2 195 nm: 55 X1,000
  −[θ1] λ1 218 nm: 14 X1,000
[1]; 70 ° C.
  Ratio [θ2]/[θ1]: 4.1
  [θ2] λ2 195 nm: 54 X1,000
  −[θ1] λ1 218 nm: 13 X1,000
[1]; 90 ° C.
  Ratio [θ2]/[θ1]: 4.0
  [θ2] λ2 195 nm: 50 X1,000
  −[θ1] λ1 218 nm: 12.5 X1,000
[1]; SDS at 90° C., 1-7 M guanidine-HCl or 8 M urea at room temperature for over 16 hours
  β-sheet structure in chemical denaturants (CD spectra): not significantly affected
[1]; over 25-90° C.
  decrease of mean residue ellipticity (−[θ]218 nm), thermal profile: 22%
[1]; over the temperature range of 25-90° C.
  ratios of ellipticity at 194 nm/217 nm: approximately 4.0
[1]; pH 1.5 to 3, 7 and 11
  decrease of ellipticity (−[θ]218 nm), pH profile: less than 10%
[2]
  neurite outgrowth on biopolymers: not on EAK16-based biopolymers
PC12 cells; NGF-treated PC12 cells on membranes
  neurite outgrowth of NGF-treated PC12 cells, in words: little neurite processes; also recorded: little neurite outgrowth
PC12 cells; PC12 cells without NGF, 14 days
  Neurite outgrowth, untreated, 14 days: − (no neurite outgrowth)
[3]; identical conditions, in words
  formation of macroscopic membranes: could undergo self-assembly
[3]; water
  membranous structure in Water: −
PC12NGF; 30 min, Ca^++ & Mg^++ free, EDTA serum-free + Cyclohex
  cell attachment: ++++
PC12NGF; 30 min, Normal Ca^++ & Mg^++ serum-free + Cyclohex
  cell attachment: ++++
PC12NGF; 60 min, Ca^++ & Mg^++ free, EDTA serum-free + Cyclohex
  cell attachment: ++++
PC12NGF; 60 min, Normal Ca^++ & Mg^++ serum-free + Cyclohex
  cell attachment: ++++
PC12; PC12, 30 min, Ca^++ & Mg^++ free, EDTA serum-free + Cyclohex
  cell attachment: ++++
PC12; PC12, 30 min, Normal Ca^++ & Mg^++ serum-free + Cyclohex
  cell attachment: ++++
PC12; PC12, 60 min, Ca^++ & Mg^++ free, EDTA serum-free + Cyclohex
  cell attachment: ++++
PC12; PC12, 60 min, Normal Ca^++ & Mg^++ serum-free + Cyclohex
  cell attachment: ++++
